Experimental data taken from patent US10472341B2, “Bicyclic tetrahydrothiazepine derivatives useful for the treatment of neoplastic and/or infectious diseases” (APEIRON BIOLOGICS AG, priority 2015, dated 2019).
Structures can show the parent of a compound that is named as a salt. Where two headings read alike, the source gives them in different places.

How the values were obtained:
Type in all cases: cell-based
[1] = tested on: aCD3/aCD28-stimulated human PBMCs; assay: Cytokine production in aCD3/aCD28 stimulated human PBMCs; conditions: PBMC, 18 h
Procedure, shortened: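 Compound effects measured in buffy-coat PBMCs activated 18 h at 37° C by 1 μg/mL each of soluble anti-CD3 (OKT3) and anti-CD28 (28.2), 1e6 cells/mL. Cytokines in harvested supernatants read by MSD or HTRF.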

CD4 T cells = assay: CD69 expression on aCD3/aCD28 stimulated isolated human CD4 T cells (flow cytometry); conditions: 24 h after TCR stimulation, read-out: Activity Class CD69 (CD4)
Protocol: (§1) Isolated T cells were plated in Xvivo medium at 1.5*10 ^5 cells per in 96 well culture plates and TCR-stimulated with anti-CD3/28 mAbs in the presence of compound as indicated. Cytokine production was determined at 24 h or 48 h following TCR stimulation in cell culture supernatants using commercially available ELISA kits (BD and eBioscience) as recommended by the manufacturer. T cell proliferation and CD25 expression (CD25-PC5 reagent purchased from Beckman Coulter) was determined by flow cytometry (Beckman-Coulter FC500) and analysed with Kaluza Software. For measurement of CD69 expression, isolated CD4 and CD8 T cells were plated in Xvivo medium at […] per in 96 well culture plates and TCR-stimulated with anti-CD3/28 mAbs in the presence of compound. CD69 expression was determined at 24 h following TCR stimulation by flow cytometry (CD4eF450, CD8APCeF780 and CD69-PC7 reagent purchased from eBioscience) and analysed with Kaluza Software.
(§2) For measurement of CD69 expression, isolated CD4 and CD8 T cells were plated in Xvivo medium at 80000 cells per in 96 well culture plates and TCR-stimulated with anti-CD3/28 mAbs in the presence of compound. CD69 expression was determined at 24 h following TCR stimulation by flow cytometry (CD4eF450, CD8APCeF780 and CD69-PC7 reagent purchased from eBioscience) and analysed with Kaluza Software.

CD8 T cells = assay: CD69 expression on aCD3/aCD28 stimulated isolated human CD8 T cells (flow cytometry); conditions: T-cell, 24 h after TCR stimulation, read-out: Activity Class CD69 (CD8)
Protocol: as §1, §2

[2] = enhancement of IFN-γ production, read-out: Activity Class IFN-γ
[3] = enhancement of IL-2 production, read-out: Activity Class IL-2

Structure (SMILES) | EC50 [1, 2] | EC50 [1, 3] | EC50 (CD4 T cells) | EC50 (CD8 T cells)
CCCCNC(=O)c1cc2c(cc1F)S(=O)(=O)C[C@H](N)C(=O)N2Cc1ccc(F)cc1 [Example 133, (3R)-3-amino-N-butyl-8-fluoro-5-[(4-fluorophenyl)methyl]-1,1,4-trioxo-2,3,4,5-tetrahydro-1λ^6,5-benzothiazepine-7-carboxamide hydrochloride] | < 1580 nM | 1580 to 5010 nM | < 1580 nM | < 1580 nM
N[C@H]1CS(=O)(=O)c2ccc(C(=O)NCC3(F)CCOCC3)cc2N(Cc2ccc(Cl)cc2)C1=O [Example 165, (3R)-3-amino-5-[(4-chlorophenyl)methyl]-N-[(4-fluorooxan-4-yl)methyl]-1,1,4-trioxo-2,3,4,5-tetrahydro-1λ^6,5-benzothiazepine-7-carboxamide] | < 1580 nM | 1580 to 5010 nM | < 1580 nM | < 1580 nM
COc1ccc(CNC(=O)c2ccc3c(c2)N(Cc2ccc(OC)cc2)C(=O)[C@@H](N)CS3(=O)=O)cc1 [Example 151, (3R)-3-amino-N,5-bis[(4-methoxyphenyl)methyl]-1,1,4-trioxo-2,3,4,5-tetrahydro-1λ^6,5-benzothiazepine-7-carboxamide] | 1580 to 5010 nM | 1580 to 5010 nM | 1580 to 5010 nM | < 1580 nM
N[C@H]1CS(=O)(=O)c2ccc(C(=O)NCCN3CCOCC3)cc2N(Cc2ccc(Cl)cc2)C1=O [Example 176, (3R)-3-amino-5-[(4-chlorophenyl)methyl]-N-[2-(morpholin-4-yl)ethyl]-1,1,4-trioxo-2,3,4,5-tetrahydro-1λ^6,5-benzothiazepine-7-carboxamide] | > 5010 nM | > 5010 nM | > 5010 nM | > 5010 nM
COc1ccc(CN2C(=O)[C@@H](N)CS(=O)(=O)c3cc(F)c(C(=O)NCCCC(F)(F)F)cc32)cc1 [Example 141, (3R)-3-amino-8-fluoro-5-[(4-methoxyphenyl)methyl]-1,1,4-trioxo-N-(4,4,4-trifluorobutyl)-2,3,4,5-tetrahydro-1λ^6,5-benzothiazepine-7-carboxamide] | < 1580 nM | < 1580 nM | < 1580 nM | < 1580 nM
N[C@H]1CS(=O)(=O)c2ccc(C(=O)N[C@@H]3CC3(F)F)cc2N(Cc2ccc(C3CC3)cc2)C1=O [Example 159, (3R)-3-amino-5-[(4-cyclopropylphenyl)methyl]-N-[(1R)-2,2-difluorocyclopropyl]-1,1,4-trioxo-2,3,4,5-tetrahydro-1λ^6,5-benzothiazepine-7-carboxamide] | 1580 to 5010 nM | 1580 to 5010 nM | < 1580 nM | < 1580 nM
C#CCOc1ccc(CNC(=O)c2cc3c(cc2F)S(=O)(=O)C[C@H](N)C(=O)N3Cc2ccc(Cl)cc2)cc1 [Example 178, (3R)-3-amino-5-[(4-chlorophenyl)methyl]-8-fluoro-1,1,4-trioxo-N-{[4-(prop-2-yn-1-yloxy)phenyl]methyl}-2,3,4,5-tetrahydro-1λ^6,5-benzothiazepine-7-carboxamide] | < 1580 nM | < 1580 nM | < 1580 nM | < 1580 nM
N[C@H]1CS(=O)(=O)c2cc(F)c(C(=O)NCCC3CCOCC3)cc2N(Cc2ccc(Cl)cc2)C1=O [Example 135, (3R)-3-amino-5-[(4-chlorophenyl)methyl]-8-fluoro-N-[2-(oxan-4-yl)ethyl]-1,1,4-trioxo-2,3,4,5-tetrahydro-1λ^6,5-benzothiazepine-7-carboxamide hydrochloride] | < 1580 nM | 1580 to 5010 nM | 1580 to 5010 nM | 1580 to 5010 nM
N[C@H]1CS(=O)(=O)c2ccc(C(=O)NC3CC3(F)F)cc2N(Cc2ccc(Br)cc2)C1=O (stereo partly drawn) [Example 180, (3R)-3-amino-5-[(4-bromophenyl)methyl]-N-(2,2-difluorocyclopropyl)-1,1,4-trioxo-2,3,4,5-tetrahydro-1λ^6,5-benzothiazepine-7-carboxamide] | < 1580 nM | < 1580 nM | < 1580 nM | < 1580 nM
N[C@H]1CS(=O)(=O)c2cc(F)c(C(=O)NCCCC(F)(F)F)cc2N(Cc2ccccc2)C1=O [Example 136, (3R)-3-amino-5-benzyl-8-fluoro-1,1,4-trioxo-N-(4,4,4-trifluorobutyl)-2,3,4,5-tetrahydro-1λ^6,5-benzothiazepine-7-carboxamide hydrochloride] | < 1580 nM | < 1580 nM | < 1580 nM | < 1580 nM
CCCCNC(=O)c1cc2c(cc1F)SC[C@H](N)C(=O)N2Cc1ccc(F)cc1 [Example 131, (3R)-3-amino-N-butyl-8-fluoro-5-[(4-fluorophenyl)methyl]-4-oxo-2,3,4,5-tetrahydro-1,5-benzothiazepine-7-carboxamide hydrochloride] | 1580 to 5010 nM | > 5010 nM | > 5010 nM | > 5010 nM
N[C@H]1C[S@@+]([O-])c2cc(F)c(C(=O)NCCCC(F)(F)F)cc2N(Cc2ccc(Cl)cc2)C1=O (single isomer, unassigned) [Example 123, hydrochloride] | < 1580 nM | 1580 to 5010 nM | > 5010 nM | > 5010 nM
Cl.N[C@H]1CS(=O)(=O)c2cc(F)c(C(=O)N[C@@H]3CC3(F)F)cc2N(Cc2ccc(Cl)cc2)C1=O (single isomer, unassigned) [Example 106, hydrochloride] | 1580 to 5010 nM | 1580 to 5010 nM | 1580 to 5010 nM | 1580 to 5010 nM
N[C@H]1CSc2cc(F)c(C(=O)NC3CC(F)(F)C3)cc2N(Cc2ccc(Cl)cc2)C1=O [Example 128, (3R)-3-amino-5-[(4-chlorophenyl)methyl]-N-(3,3-difluorocyclobutyl)-8-fluoro-4-oxo-2,3,4,5-tetrahydro-1,5-benzothiazepine-7-carboxamide hydrochloride] | 1580 to 5010 nM | 1580 to 5010 nM | > 5010 nM | 1580 to 5010 nM
N[C@H]1CS(=O)(=O)c2ccc(C(=O)N[C@@H]3CC3(F)F)cc2N(Cc2ccc(C(F)(F)F)cc2)C1=O [Example 179, (3R)-3-amino-N-[(1R)-2,2-difluorocyclopropyl]-1,1,4-trioxo-5-{[4-(trifluoromethyl)phenyl]methyl}-2,3,4,5-tetrahydro-1λ^6,5-benzothiazepine-7-carboxamide] | 1580 to 5010 nM | < 1580 nM | < 1580 nM | < 1580 nM
N[C@H]1CS(=O)(=O)c2ccc(C(=O)NCCC(F)(F)F)cc2N(Cc2ccc(Cl)cc2)C1=O [Example 155, (3R)-3-amino-5-[(4-chlorophenyl)methyl]-1,1,4-trioxo-N-(3,3,3-trifluoropropyl)-2,3,4,5-tetrahydro-1λ^6,5-benzothiazepine-7-carboxamide] | 1580 to 5010 nM | 1580 to 5010 nM | < 1580 nM | < 1580 nM
N[C@H]1CS(=O)(=O)c2cc(F)c(C(=O)NCC3CCOCC3)cc2N(Cc2ccc(F)cc2)C1=O [Example 139, (3R)-3-amino-8-fluoro-5-[(4-fluorophenyl)methyl]-N-[(oxan-4-yl)methyl]-1,1,4-trioxo-2,3,4,5-tetrahydro-1λ^6,5-benzothiazepine-7-carboxamide hydrochloride] | 1580 to 5010 nM | 1580 to 5010 nM | 1580 to 5010 nM | > 5010 nM
COc1ccc(CN2C(=O)[C@@H](N)CS(=O)(=O)c3ccc(C(=O)NC4CCC(F)(F)CC4)cc32)cc1 [Example 154, (3R)-3-amino-N-(4,4-difluorocyclohexyl)-5-[(4-methoxyphenyl)methyl]-1,1,4-trioxo-2,3,4,5-tetrahydro-1λ^6,5-benzothiazepine-7-carboxamide] | 1580 to 5010 nM | > 5010 nM | 1580 to 5010 nM | < 1580 nM
N[C@H]1CS(=O)(=O)c2ccc(C(=O)N[C@@H]3CC3(F)F)cc2N(Cc2ccc(OC(F)F)cc2)C1=O [Example 160, (3R)-3-amino-N-[(1R)-2,2-difluorocyclopropyl]-5-{[4-(difluoromethoxy)phenyl]methyl}-1,1,4-trioxo-2,3,4,5-tetrahydro-1λ^6,5-benzothiazepine-7-carboxamide] | > 5010 nM | > 5010 nM | < 1580 nM | 1580 to 5010 nM
N[C@H]1CS(=O)(=O)c2cc(F)c(C(=O)NC3CCC(F)(F)CC3)cc2N(Cc2ccc(Cl)cc2)C1=O [Example 126, (3R)-3-amino-5-[(4-chlorophenyl)methyl]-N-(4,4-difluorocyclohexyl)-8-fluoro-1,1,4-trioxo-2,3,4,5-tetrahydro-1λ^6,5-benzothiazepine-7-carboxamide hydrochloride] | < 1580 nM | < 1580 nM | < 1580 nM | < 1580 nM
